Measurements taken from ChEMBL document CHEMBL3621087, “Adamantane amine derivatives as dual acting NMDA receptor and voltage-gated calcium channel inhibitors for neuroprotection” (Medchemcomm, 2014).
Activity calls are given as the source filed them. The calls are words filed in the database; no cut-off is given here.

Columns and labels:
[1] = species: Mus musculus; experiment: Inhibition of voltage-gated calcium channel in mouse synaptoneurosomes assessed as reduction of KCl-induced calcium influx at 100 uM after 30 mins using Fura-2 AM by fluorescence assay relative to control
[2] = species: Mus musculus; experiment: Inhibition of NMDA receptor in mouse synaptoneurosomes assessed as reduction of NMDA/glycine-induced calcium influx at 100 uM after 30 mins using Fura-2 AM by fluorescence assay relative to control

Row | Structure (SMILES) | inhibition [1] | inhibition [2]
1 | O=[N+]([O-])c1ccc(CNC23CC4CC(CC(C4)C2)C3)cc1 | 85.7% | 74.8%
2 | COc1ccc(CNC23CC4CC(CC(C4)C2)C3)cc1 | 71.2% | 79.2%
3 | COCCOC(=O)C1=C(C)NC(C)=C(C(=O)OC(C)C)C1c1cccc([N+](=O)[O-])c1 (stereo not given) | 100% | inactive
4 | C[C@]12N[C@H](Cc3ccccc31)c1ccccc12 | inactive | 100%
5 | Nc1ccc(CNC23CC4CC(CC(C4)C2)C3)cc1 | 49.5% | 50.4%
6 | COc1cccc(CNC23CC4CC(CC(C4)C2)C3)c1 | 44.7% | 70.2%
7 | NC12CC3CC(CC(C3)C1)C2 | 2.76% | 84.6%
8 | O=[N+]([O-])c1cccc(CNC23CC4CC(CC(C4)C2)C3)c1 | 14.3% | 36.6%
9 | Nc1cccc(CNC23CC4CC(CC(C4)C2)C3)c1 | 30% | 48.3%
10 | O=[N+]([O-])c1ccccc1CNC12CC3CC(CC(C3)C1)C2 | 49.2% | 60.6%
11 | CC12CC3CC(C)(C1)CC(N)(C3)C2 | 5.2% | 92.5%
12 | c1ccc(CNC23OC4C5C6CC(C7C6C4C72)C53)cc1 (stereo not given) | 38.4% | 22.2%
13 | Nc1ccccc1CNC12CC3CC(CC(C3)C1)C2 | 37.1% | 31.3%
14 | c1ccc(CCNC23CC4CC(CC(C4)C2)C3)cc1 | 42% | 89.5%
15 | c1ccc(CNC23CC4CC(CC(C4)C2)C3)cc1 | 39.6% | 66.7%
